Experimental data: patent US6762029B2, “Methods of identifying agents that modulate P2Y12 receptor activity” (Portola Pharmaceuticals, Inc., priority 1999, dated 2004)
pEC50, pIC50: −log10 of the molar value.

How the values were obtained:
hP2Y12 [1] = molecular target: T1, hP2Y12 (Homo sapiens, UniProt Q9H244); experiment: Forskolin-stimulated cAMP accumulation in CHO cells stably expressing hP2Y12; format: cell-based
T1 construct: expressed in transfected cells; host or cells: Xenopus laevis oocytes injected with hP2Y12 cRNA (50 pg) plus Kir3.1 and Kir3.4 cRNAs
Experimental: Chinese Hamster Ovary (CHO) cells or rat 2-9 fibroblasts, which are null for Gi-linked purinergic receptors, were transfected with hP2Y12 or rP2Y12 cDNA's, respectively using FuGene reagent (Roche), and cells were cultured in the presence of G418 for 2 weeks to select for stable transfectants. For cAMP assays, stably transfected CHO cells expressing the hP2Y12 plasmid were plated in 12-well dishes. Forty-eight hours later media was removed from the cells and replaced with serum-free media containing IBMX (0.25 mM final) and incubated at 37° C. for 5 minutes. Cells were incubated for an additional 5 min with 10 μM forskolin, as well as the indicated agonists and antagonists. Pertussis toxin treatment (30 ng/ml) occurred for 20 hrs at 37° C. prior to assay. Cyclic AMP levels were determined from aliquots of cell extracts in a radioimmunoassay (Amersham Biotrak cAMP ^125I assay system).
FIG. 3(A). Receptor coupling to adenylyl cyclase was assessed as ADP-mediated (0.1-10 μM) inhibition of forskolin-stimulated (10 μM) cAMP accumulation (CON=control, normalized to 100%). (B) The effect of the specific antagonists 2MeSAMP (2-MES)(50 μM) and C1330-7 (50 μM) on repression of ADP-mediated (1 μM) forskolin-stimulated cAMP levels. (C) Effect of pertussis toxin (PTX) pretreatment on the inhibition by 10 μM ADP of forskolin-stimulated cAMP levels. Results are the mean+/−s.d. of three representative experiments performed in triplicate.

P2Y12 receptor [2] = experiment: Two-electrode voltage-clamp of Xenopus oocytes expressing P2Y12 with Kir3.1 and 3.4: agonist-stimulated potassium currents; format: cell-based; details: 10 μM each, FIG. 1B
Experimental: (§1) Defolliculated Xenopus laevis oocytes were injected with a positive 500 clone pool (10 ng), rP2Y12 (10 pg), hP2Y12 (50 pg), Kir3.1, Kir3.4, PTX and hm2 (1 ng each) cRNAs as indicated. Three to seven days after injection, two-electrode voltage-clamp recordings were performed using a Geneclamp 500 amplifier (Axon Instruments) and a Maclab A/D converter (Maclab). Membrane potentials were clamped at −70 mV while the recording chamber was perfused at a rate of 2 ml/min with a solution containing (in mM) 70 KCl, 20 NaCl, 3 MgCl2, 5 HEPES, pH 7.4, at room temperature. The KCl was replaced with NaCl to examine responses in zero potassium. Agonists and antagonists (Roche Molecular Biochemistry or Sigma) were diluted in the recording solution. Experiments using C1330-7 included 0.1% dimethylsulfoxide to enhance its solubility in the perfusate.
(§2) FIG. 1(A). Activation of potassium-dependent currents in Xenopus oocytes expressing P2Y12 with Kir3.1 and 3.4. ADP (10 μM) was applied (short bars) in the presence or absence (long bar) of extracellular potassium (70 mM) while recording membrane currents in the whole-cell voltage clamp configuration. […] (B) ADP-selective stimulation of potassium channel-dependent currents by P2Y12 occurs via a pertussis toxin-sensitive pathway. UDP, adenosine (A), ATP-α-S or ADP (10 μM each) were sequentially applied to oocytes expressing the rat or human receptor with or without Kir3.1, 3.4 and pertussis toxin (PTX). (C) The agonist profile of P2Y12 recapitulates that observed for the Gi-coupled platelet ADP receptor. Concentration-response curves for ADP and 2MeSADP are presented. Membrane currents were normalized in each oocyte to a response obtained with 10 μM ADP. Each point represents the mean values (+/−s.d.) from five independent oocytes. The Hill equation was used to fit the response data.

hP2Y12 [3] = molecular target: T1, hP2Y12; experiment: [3H]2MeSADP binding to membranes of COS7 cells transiently transfected with hP2Y12 (rapid filtration); details: 4 C, 30 minutes
Experimental: hP2Y12 cDNA was transiently transfected into cos7 cells and crude membranes were prepared using standard procedures. Binding of 1 nM [^3H]2MeSADP at various membrane protein concentrations and in the absence and presence of various inhibitors was determined at 4 C. for 30 minutes in a rapid filtration assay (triplicates). Non-specific binding was determined with 10 uM 2MeSADP and subtracted from all data. Each experiment included membranes from untransfected cells.

hP2Y12 [4] = molecular target: T1, hP2Y12; experiment: Two-electrode voltage-clamp of Xenopus oocytes expressing hP2Y12 with Kir3.1 and 3.4: inhibition of ADP-stimulated potassium currents; format: cell-based
Experimental: as §1
FIG. 2(A). […] The dot (.) indicates the start of a 15 sec application of ADP, while bars denote co-application with the antagonist. (B) 2MeSAMP and C1330-7 inhibition curves. Current responses were normalized to that elicited by ADP (500 nM) alone in each oocyte and plotted as the mean+/−s.d. Curves were fitted to the data using the Hill equation (n=5 independent oocytes for each point). (C) Selective ablation of P2Y12 but not m2 muscarinic receptor signaling by the thiol reagent pCMBS. ADP (10 μM), carbachol (1 μM), and pCMBS (1 mM) were applied sequentially to an oocyte expressing both receptors concurrently with Kir3.1 and 3.4. Bars indicate periods of drug application (10 sec).

P2Y12 receptor [5] = molecular target: T2, P2Y12 receptor (UniProt Q9H244); experiment: Two-electrode voltage-clamp of Xenopus oocytes expressing P2Y12 with Kir3.1 and 3.4: agonist-stimulated potassium currents; format: cell-based; details: FIG. 1C; for pEC50: Xenopus oocytes with Kir3.1 and 3.4, currents normalized to 10 μM ADP, Hill fit
T2 construct: EC50, potassium currents in oocytes; other: Xenopus oocytes with Kir3.1 and 3.4; currents normalized to 10 μM ADP; Hill; potency compared to ADP
Experimental: as §1, §2

m2 muscarinic receptor = molecular target: T3, m2 muscarinic receptor (Homo sapiens, UniProt P08172); experiment: Carbachol-activated Kir3.1/3.4 currents via m2 muscarinic receptor in the same oocytes; format: cell-based; details: 1 mM, carbachol 1 μM, FIG. 2C
T3 construct: expressed in transfected cells; host or cells: Xenopus laevis oocytes injected with hm2 cRNA (1 ng) together with hP2Y12, Kir3.1 and Kir3.4
T3 sequence (P08172 1-466): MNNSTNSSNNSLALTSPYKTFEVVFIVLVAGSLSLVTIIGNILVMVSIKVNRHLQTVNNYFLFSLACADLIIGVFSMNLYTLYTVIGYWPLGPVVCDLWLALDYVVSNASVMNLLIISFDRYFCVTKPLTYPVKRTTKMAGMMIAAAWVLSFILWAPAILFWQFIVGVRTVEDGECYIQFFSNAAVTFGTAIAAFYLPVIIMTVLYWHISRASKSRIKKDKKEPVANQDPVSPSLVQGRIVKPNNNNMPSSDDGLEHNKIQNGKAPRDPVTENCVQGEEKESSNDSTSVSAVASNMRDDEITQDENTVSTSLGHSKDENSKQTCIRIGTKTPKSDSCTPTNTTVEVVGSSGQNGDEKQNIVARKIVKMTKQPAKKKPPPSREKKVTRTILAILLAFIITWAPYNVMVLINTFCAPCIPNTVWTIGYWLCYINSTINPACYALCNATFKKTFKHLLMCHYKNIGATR
Experimental: as §1
FIG. 2(A). […] The dot (.) indicates the start of a 15 sec application of ADP, while bars denote co-application with the antagonist. (B) 2MeSAMP and C1330-7 inhibition curves. Current responses were normalized to that elicited by ADP (500 nM) alone in each oocyte and plotted as the mean+/−s.d. Curves were fitted to the data using the Hill equation (n=5 independent oocytes for each point). (C) Selective ablation of P2Y12 but not m2 muscarinic receptor signaling by the thiol reagent pCMBS. […]

rat P2Y12 = molecular target: T4, rat P2Y12 (Rattus norvegicus, UniProt Q9EPX4); experiment: Two-electrode voltage-clamp of Xenopus oocytes expressing rat P2Y12: inhibition of ADP-evoked signal; format: cell-based
T4 construct: expressed in transfected cells; host or cells: Xenopus laevis oocytes injected with rP2Y12 cRNA (10 pg) plus Kir3.1 and Kir3.4 cRNAs
Experimental: as §1

T1 sequence (Q9H244 whole entry): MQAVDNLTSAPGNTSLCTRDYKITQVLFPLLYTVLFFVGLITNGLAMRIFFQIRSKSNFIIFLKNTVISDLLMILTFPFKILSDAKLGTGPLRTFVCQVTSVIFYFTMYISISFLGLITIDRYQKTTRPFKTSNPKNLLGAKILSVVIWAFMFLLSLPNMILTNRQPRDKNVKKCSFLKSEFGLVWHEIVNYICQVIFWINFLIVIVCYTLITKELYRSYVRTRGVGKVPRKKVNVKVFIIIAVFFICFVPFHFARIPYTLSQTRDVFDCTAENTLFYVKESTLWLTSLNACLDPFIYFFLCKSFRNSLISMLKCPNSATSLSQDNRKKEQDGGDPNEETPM
T4 sequence (Q9EPX4 whole entry): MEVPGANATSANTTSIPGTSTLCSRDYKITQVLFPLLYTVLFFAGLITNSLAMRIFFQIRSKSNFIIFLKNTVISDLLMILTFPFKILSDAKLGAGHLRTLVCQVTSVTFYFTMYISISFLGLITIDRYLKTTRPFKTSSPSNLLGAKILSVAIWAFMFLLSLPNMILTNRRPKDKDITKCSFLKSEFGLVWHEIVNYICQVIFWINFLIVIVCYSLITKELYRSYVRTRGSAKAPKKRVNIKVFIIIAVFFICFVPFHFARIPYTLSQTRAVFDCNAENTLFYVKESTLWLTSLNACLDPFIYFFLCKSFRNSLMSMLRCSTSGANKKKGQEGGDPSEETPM

Question: Which “effect of pretreatment on ADP effects on forskolin-stimulated cAMP” value (hP2Y12 [1]; 30 ng/ml for 20 hrs, 10 μM ADP, FIG. 3C) does the source give for pertussis toxin here?
Answer: Its value is “abolished”.

Question: With `Nc1ncnc2c1ncn2[C@@H]1O[C@H](COP(O)(=S)OP(=O)(O)OP(=O)(O)O)[C@@H](O)[C@H]1O` (stereo partly shown) [ATP-αS] as the compound, how does the “agonist effect on potassium currents” value (P2Y12 receptor [2]) read?
Answer: Its value is “weak agonist”.

Question: How did the “competition of 1 nM [3H]2MeSADP binding to membranes from transfected cells” value (hP2Y12 [3]; 50 μM) turn out when `CSc1nc(N)c2ncn([C@@H]3O[C@H](COP(=O)(O)O)[C@@H](O)[C@H]3O)c2n1` [2MeSAMP] was run?
Answer: Its value is “essentially to the level of untransfected cells”.

Question: What about the “effect on repression of cAMP levels by 1 μM ADP” value (hP2Y12 [1]; antagonist 50 μM, 10 μM forskolin, FIG. 3B) of the same compound?
Answer: Its value is “reversed”.

Question: What about the “effect on forskolin-stimulated cAMP levels in the absence of agonist” value (hP2Y12 [1]; no agonist) of the same compound?
Answer: The value was “Neither of these antagonists had effects”.

Question: And the “block of ADP (1 μM) responses” value (hP2Y12 [4]; antagonist 10 μM, FIG. 2A)?
Answer: The value was “reversible block”.

Question: And the pIC50 (hP2Y12 [4]; oocytes expressing rat or human P2Y12 (FIG. 2B: hP2Y12), ADP 500 nM, read-out: IC50, block of ADP-induced K+ currents)?
Answer: Its pIC50 is 5.85.

Question: Which results are given for `Nc1ncnc2c1ncn2[C@@H]1O[C@H](COP(=O)(O)OP(=O)(O)O)[C@@H](O)[C@H]1O` [ADP, adenosine 5′-diphosphate]?
Answer: maximum reduction of forskolin-stimulated cAMP levels (hP2Y12 [1]; 10 μM ADP, 10 μM forskolin, FIG. 3A): 47%; pEC50 (P2Y12 receptor [5]): 6.52

Question: Which “effect on activation of the signaling pathway by m2 muscarinic receptors” value (m2 muscarinic receptor) does the source give for `O=S(=O)(O)c1cc[c]([Hg][Cl])cc1` [pCMBS, p-chloromercuriphenylsulfonic acid] here?
Answer: Its value is “unaffected”.

Question: And the “effect on ADP-evoked current responses” value (hP2Y12 [4]; brief exposure, 1 mM, ADP 10 μM, FIG. 2C)?
Answer: The value was “eliminated”.

Question: What does the source list for `Nc1ncnc2c1ncn2[C@@H]1O[C@H](COP(=O)(O)O)[C@@H](OP(=O)(O)O)[C@H]1O` [A3P5P]?
Answer: competition of 1 nM [3H]2MeSADP binding to membranes from transfected cells (hP2Y12 [3]; 300 μM): only little effect; inhibitory effect on the signal evoked by ADP (rat P2Y12): no inhibitory effect; inhibitory effect on the signal evoked by ADP (hP2Y12 [4]; human P2Y12, FIG. 2A): no inhibitory effect

Question: What does the source list for `CSc1nc(N)c2ncn([C@@H]3O[C@H](COP(=O)(O)OP(=O)(O)O)[C@@H](O)[C@H]3O)c2n1` [2MeSADP]?
Answer: pEC50 (P2Y12 receptor [5]): 9.05; potency compared to ADP (P2Y12 receptor [5]; ratio of EC50s): 2 orders of magnitude
